From patent EP4813463A2, “TYK2 INHIBITORS AND COMPOSITIONS AND METHODS THEREOF” (Lynk Pharmaceuticals Co. Ltd., priority 2023, dated 2024)
pIC50: −log10 of the molar value. Read-outs that look alike come from different tables or passages of the source.

Tests used:
TYK2-JH2 domain = target: T1, TYK2-JH2 domain (Homo sapiens, UniProt P29597); assay: Binding activity test for JH2 domain of TYK2 (Tb-antibody/tracer FRET); details: JH2 domain enzyme; 60 min at 25°C, then 4°C overnight; read-out: TYK2 JH2 Binding IC50
T1 construct: JAK1-JH2 domain or TYK2-JH2 domain enzyme in assay buffer
Method in brief: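 Competitive TR-FRET binding: compounds dispensed as an 11-point 3-fold dilution series, then Tb-labelled antibody and tracer added to the JH2 protein system. Incubated at 25°C, then overnight at 4°C; FRET signal read on Envision and IC50 (nM) derived.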

[1] = test system: Ba/F3-FL-TYK2-P760L cells; assay: Anti-proliferative assay in engineered Ba/F3 cells (Cell-Titer Glo, 72 h); assay type: cell-based; details: 72 h compound treatment, concentration that causes 50% growth inhibition, read-out: Baf3-FL-T2P760L
Experimental: Dimerization domain of Tel protein fused with JAK kinase domain was permanently transduced into Ba/F3 cells, whose proliferation is dependent on JAK activity in the absence of IL-3 induction. These engineered Ba/F3-FL-TYK2-P760L cells were used to monitor JAK inhibitory activities of the compounds in the cellular. Ba/F3 cells were cultured in RPMI-1640 (Corning) containing 10% fetal bovine serum. Cells were seeded at 2000/well of white flat bottom 96-well plates. The well containing medium only was used as background control. After 24h growth, cells were treated with compounds. The test compounds were dissolved in DMSO to a stock concentration of 20 mM. 3-fold serially diluted compounds for 9 concentrations with top concentration of 20 µM was added into the each well. The final DMSO concentration was 0.1%. The cells continued to grow at 37°C in 5% CO2 for 72 h after compound treatment. The viability was measured by cellular ATP determination using the Cell-Titer Glo luciferase reagent (Promega). The Luminescence value was recorded by a multi-label reader Envision (PerkinElmer). Inhibition Rate was calculated relative to vehicle (DMSO) treated control wells using following formula: % Inhibition = 100−(RLU_compound−RLU_blank)/(RLU_control−RLU_blank) × 100% [formula] wherein • RLU_compound = the relative light unit of cells treated with test compounds • RLU_blank = the relative light unit of medium with DMSO only • RLU_control = the relative light unit of cells treated with DMSO only
Table 4. Ba/F3-FL-TYK2-P760L Cells IC50 Values of Exemplary Compounds

T1 sequence (P29597 589-875 limits assumed): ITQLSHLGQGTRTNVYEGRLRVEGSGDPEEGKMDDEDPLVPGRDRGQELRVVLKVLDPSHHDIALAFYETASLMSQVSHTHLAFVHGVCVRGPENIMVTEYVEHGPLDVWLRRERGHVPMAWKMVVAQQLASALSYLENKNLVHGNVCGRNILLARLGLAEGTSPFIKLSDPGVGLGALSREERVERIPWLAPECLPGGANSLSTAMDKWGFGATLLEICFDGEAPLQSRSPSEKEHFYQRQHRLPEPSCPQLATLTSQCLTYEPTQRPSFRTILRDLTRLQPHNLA

Structure (SMILES)	pIC50 (TYK2-JH2 domain)	pIC50 ([1]; Mus musculus, BaF3, 72 h)	pIC50 [1]
COC(=O)c1cnc(NC(=O)[C@@H]2C[C@@H]2F)cc1Nc1nn(C)c2ccc([C@H](OC)C(F)(F)F)c(OC)c12 [Example 76, Methyl 6-((1S,2S)-2-fluorocyclopropane-1-carboxamido)-4-((4-methoxy-1-methyl-5-((S)-2,2,2-trifluoro-1-methoxyethyl)-1H-indazol-3-yl)amino)nicotinate]	10.05	8.46	–
[2H]C([2H])([2H])NC(=O)c1cnc(NC(=O)C2CC2)cc1Nc1nn(CC)c2ccc(C(O)C(F)(F)F)c(OC)c12 (single isomer, unassigned) [Example 71B, (R*)-6-(cyclopropanecarboxamido)-4-((1-ethyl-4-methoxy-5-(2,2,2-trifluoro-1-hydroxyethyl)-1H-indazol-3-yl)amino)-N-(methyl-d3)nicotinamide]	9.60	–	7.75
COC(=O)c1cnc(NC(=O)C2CC2)cc1Nc1nn(C)c2ccc(C(OC)C3(F)CC3)c(OC)c12 (stereo not drawn) [Example 74, Methyl 6-(cyclopropanecarboxamido)-4-((5-((1-fluorocyclopropyl) (methoxy)methyl)-4-methoxy-1-methyl-1H-indazol-3-yl)amino)nicotinate]	9.74	7.51	–
COC(=O)c1cnc(NC(=O)[C@@H]2C[C@@H]2F)cc1Nc1nn(C)c2ccc(C(O)C(F)(F)F)c(OC)c12 (stereo partly drawn) [Example 122, Methyl 6-((1S,2S)-2-fluorocyclopropane-1-carboxamido)-4-((4-methoxy-1-methyl-5-(2,2,2-trifluoro-1-hydroxyethyl)-1H-indazol-3-yl)amino) nicotinate]	9.75	8.94	–
[2H]C([2H])([2H])NC(=O)c1cnc(NC(=O)C2CC2)cc1Nc1nn(C([2H])([2H])[2H])c2ccc([C@H](OC)C(F)(F)F)c(OC)c12 [Example 153, (S)-6-(cyclopropanecarboxamido)-4-((4-methoxy-1-(methyl-d3)-5-(2,2,2-trifluoro-1-methoxyethyl)-1H-indazol-3-yl)amino)-N-(methyl-d3)nicotinamide]	10.26	9.63	–
COC(=O)c1cnc(NC(=O)C2CC2)cc1Nc1nn(C)c2ccc(C3(C#N)CC3)c(OC)c12 [Example 162, Methyl 4-((5-(1-cyanocyclopropyl)-4-methoxy-1-methyl-1H-indazol-3-yl)amino)-6-(cyclopropanecarboxamido)nicotinate]	9.58	7.58	–
[2H]C([2H])([2H])Oc1c([C@@H](OC)C(F)(F)F)ccc2c1c(Nc1cc(NC(=O)C3CC3)ncc1C(=O)OC)nn2C [Example 120B, Methyl (R)-6-(cyclopropanecarboxamido)-4-((4-(methoxy-d3)-1-methyl-5-(2,2,2-trifluoro-1-methoxyethyl)-1H-indazol-3-yl)amino)nicotinate]	9.35	6.97	–
COCCn1nc(Nc2cc(NC(=O)C3CC3)ncc2C(=O)OC)c2c(OC)c(C(OC)C(F)(F)F)ccc21 (stereo not drawn) [Example 78, Methyl 6-(cyclopropanecarboxamido)-4-((4-methoxy-1-(2-methoxyethyl)-5-(2,2,2-trifluoro-1-methoxyethyl)-1H-indazol-3-yl)amino)nicotinate]	9.77	8.28	–
COC(=O)c1cnc(NC(=O)C2CC2)cc1Nc1nn(C(F)(F)F)c2ccc(C(OC)C(F)(F)F)c(OC)c12 (stereo not drawn) [Example 163, Methyl 6-(cyclopropanecarboxamido)-4-((4-methoxy-5-(2,2,2-trifluoro-1-methoxyethyl)-1-(trifluoromethyl)-1H-indazol-3-yl)amino)nicotinate]	9.31	7.25	–
COCc1ccc2c(c(Nc3cc(NC(=O)C4CC4)ncc3C(=O)OC)nn2C)c1OC [Example 133, Methyl 6-(cyclopropanecarboxamido)-4-((4-methoxy-5-(methoxymethyl)-1-methyl-1H-indazol-3-yl)amino)nicotinate]	9.54	7.27	–
COC(=O)c1cnc(NC(=O)C2CC2)cc1Nc1nn(C)c2ccc(CC(F)(F)F)c(OC)c12 [Example 148, Methyl 6-(cyclopropanecarboxamido)-4-((4-methoxy-1-methyl-5-(2,2,2-trifluoroethyl)-1H-indazol-3-yl)amino)nicotinate]	10.04	8.15	–
C/C=C(\F)c1cnc(NC(=O)C2CC2)cc1Nc1nn(C)c2ccc(C(O)C(F)(F)F)c(OC)c12 (stereo not drawn) [Example 130, (Z)-N-(5-(1-fluoroprop-1-en-1-yl)-4-((4-methoxy-1-methyl-5-(2,2,2-trifluoro-1-hydroxyethyl)-1H-indazol-3-yl)amino)pyridin-2-yl)cyclopropanecarboxamide]	9.16	6.80	–
COC(=O)c1cnc(NC(=O)C2CC2)cc1Nc1csc2ccc(C(OC)C(F)(F)F)c(OC)c12 (stereo not drawn) [Example 111, Methyl 6-(cyclopropanecarboxamido)-4-((4-methoxy-5-(2,2,2-trifluoro-1-methoxyethyl)benzo[b]thiophen-3-yl)amino)nicotinate]	9.44	7.72	–
[2H]C([2H])([2H])NC(=O)c1cnc(NC(=O)C2CC2)cc1Nc1csc2ccc(C(OC)C(F)(F)F)c(OC)c12 (stereo not drawn) [Example 72, 6-(Cyclopropanecarboxamido)-4-((4-methoxy-5-(2,2,2-trifluoro-1-methoxyethyl)benzo[b]thiophen-3-yl)amino)-N-(methyl-d3)nicotinamide]	9.85	8.58	–
COC(=O)c1cnc(NC(=O)C2CC2)cc1Nc1nn(C)c2ccc(C(C)OC)c(OC)c12 (stereo not drawn) [Example 112, Methyl 6-(cyclopropanecarboxamido)-4-((4-methoxy-5-(1-methoxyethyl)-1-methyl-1H-indazol-3-yl)amino)nicotinate]	9.79	7.94	–
COC(=O)c1cnc(NC(=O)C2CC2)cc1Nc1nn(C)c2ccc(C(OC)C(C)(F)F)c(OC)c12 (single isomer, unassigned) [Example 115A, Methyl (S*)-6-(cyclopropanecarboxamido)-4-((5-(2,2-difluoro-1-methoxypropyl)-4-methoxy-1-methyl-1H-indazol-3-yl)amino)nicotinate]	9.92	8.01	–
[2H]C([2H])([2H])OC(c1ccc2c(c(Nc3cc(NC(=O)C4CC4)ncc3C(=O)OC)nn2CCOC)c1OC)C(F)(F)F (single isomer, unassigned) [Example 157A, Methyl (S*)-6-(cyclopropanecarboxamido)-4-((4-methoxy-1-(2-methoxyethyl)-5-(2,2,2-trifluoro-1-methoxyethyl)-1H-indazol-3-yl)amino)nicotinate]	10.02	–	8.60
CONC(=O)c1cnc(NC(=O)C2CC2)cc1Nc1nn(C)c2ccc(C(OC)C(F)(F)F)c(OC)c12 (stereo not drawn) [Example 73, 6-(Cyclopropanecarboxamido)-N-methoxy-4-((4-methoxy-1-methyl-5-(2,2,2-trifluoro-1-methoxyethyl)-1H-indazol-3-yl)amino)nicotinamide]	9.85	8.12	–
COC(=O)c1cnc(NC(=O)C2CC2)cc1Nc1nn(C)c2ccc(C3COCCO3)c(OC)c12 (stereo not drawn) [Example 160, Methyl 4-((5-(1,4-dioxan-2-yl)-4-methoxy-1-methyl-1H-indazol-3-yl)amino)-6-(cyclopropanecarboxamido)nicotinate]	9.15	6.92	–
COC(=O)c1cnc(NC(=O)C2CC2)cc1Nc1nn(C)c2ccc([C@H](OC)C(C)OC)c(OC)c12 (stereo partly drawn) [Example 166, Methyl 6-(cyclopropanecarboxamido)-4-((5-((1S)-1,2-dimethoxypropyl)-4-methoxy-1-methyl-1H-indazol-3-yl)amino)nicotinate]	8.96	6.95	–
[2H]C([2H])([2H])NC(=O)c1cnc(NC(=O)C2CC2)cc1Nc1nn(C)c2ccc([C@H](OC)C(F)(F)F)c(OC([2H])([2H])[2H])c12 [Example 152, (S)-6-(cyclopropanecarboxamido)-4-((4-(methoxy-d3)-1-methyl-5-(2,2,2-trifluoro-1-methoxyethyl)-1H-indazol-3-yl)amino)-N-(methyl-d3)nicotinamide]	10.15	9.55	–
